The target in one assay is T1, BRD4 (BD1) (Homo sapiens, UniProt O60885).
T1 construct: recombinant human BRD4 (BD1; aa 44-170); purchased Reaction Biology Corporation (contract assay service); host or cells: E. coli
Briefly: AlphaScreen FRET binding assay, BRD4 (BD1). The settings on record: read-out: IC50 value for the inhibition of BRD4 (BD1). On the procedure:
(§1) Exemplary compounds of the invention were tested for inhibitory activity or potency against BRD4 (BD1) and BRD4 (BD2) using AlphaScreen FRET binding assay, and exemplary compounds of the invention were further tested for inhibitory activity or potency against class I PI3Ks (p110α/p85α, p110β/p85α, p110δ/p85α and p110γ) using a cell-free based .P13K HTRF assay. All assays were performed at Reaction Biology Corporation, One Great Valley Parkway, Suite 2, Malvem, Pa.
(§2) Exemplary compounds of the invention were tested for inhibitory activity or potency against BRD4 (BD1) and BRD4 (BD2) using AlphaScreen FRET binding assay. […] Briefly, donor beads coated with streptavidin were incubated with biotinylated histone H4 peptide (residues 1-21) containing KAc (K5/^8/12/16Ac). In the absence of inhibitor, the. His-tagged reader domain of BRD4 binds to KAc-histone H4 peptide, thereby recruiting acceptor beads coated with a nickel chelator. Binding potential is assessed by detecting light emission (520-620 nm) from acceptor beads following laser excitation (680 nm) of a photosensitizer within the donor beads that converts ambient oxygen to singlet oxygen.
(§3) All IC50 values were reported in unites of nM.
In general terms: Bead proximity is the source of the signal in Alpha formats.

A further assay deals with class I PI3Ks. Briefly: summary in words of the class I PI3K (and BRD4) results. Format: biochemical, human. The settings on record: for activity against PI3K in words: novel BRD inhibitors without PI3K activity; for overall activity in words (class I PI3Ks and BRD4): against both divergent targets. On the procedure:
Exemplary compounds of the invention were tested for inhibitory activity or potency against class I PI3Ks (p110α/p85α, p110β/p85α, p110δ/p85α and p110γ) using a cell-free based PI3K HTRF assay. This assay was used to detect the formation of the product 3,4,5-inositol triphosphate molecule (PIP3) by displacement of biotin-PIP3 from an energy transfer complex consisting of Europium labeled anti-GST monoclonal antibody, a GST-tagged pleckstrin homology (PH) domain, biotinylated PIP3 and Streptavidin-Allophycocyanin (APC). Excitation of Europium in the complex results in an energy transfer to the APC and a fluorescent emission at 665 nm. The PIP3 product formed by human PI3-Kinase activity displaces biotin-PIP3 from the complex resulting in a loss of energy transfer and thus a decrease in signal.
Human class I PI3K isoforms were co-expressed in a Baculovirus infected cell expression system. The PI3K isoforms were assayed in the presence of HEPES (50 mM, pH 7.0), NaN3 (0.02%), BSA (0.01%), orthovanadate (0.1 mM), and DMSO (1%). The exemplary compounds dissolved in DMSO were delivered into the kinase reaction mixture by Acoustic technology (Echo550; nanolitter range), and were pre-incubated for 10 min at room temperature before adding ATP (10 μM) to initiate the reaction. After 30 min at 30° C., the reactions were quenched with a stop solution, incubated overnight with a detection mixture before measuring HTRF (Ex: 320 nm; Em: 615/665 nm). The emission ratio is converted into μM PIP3 production based on PIP3 standard curves, and the nonlinear regression to obtain the standard curve and IC50 values are performed using Graphpad Prism software.
All IC50 values were reported in unites of nM. Empty cells indicate no inhibition or compound activity that could not be fit to an IC50 curve.
Dual inhibitors of class I PI3Ks and BRD4 are rare because class I PI3Ks and BRD4 are two structurally and functionally unrelated targets. […] The unexpected dual inhibitory activity or potency against both divergent targets is attributed to not only the unusual overall shape of the molecules of the present invention (as described in U.S. Pat. No. 9,637,488), but also the specific KAc-mimicking groups selected and their position incorporated into the quinoline ring.

A further assay addresses T2, BRD4 (BD2) (Homo sapiens, UniProt O60885).
T2 construct: recombinant human BRD4 (BD2; aa 349-460); purchased Reaction Biology Corporation (contract assay service); host or cells: E. coli
Nature of the assay: AlphaScreen FRET binding assay, BRD4 (BD2). Conditions: read-out: IC50 value for the inhibition of BRD4 (BD2). On the procedure: as §1, §2, §3

The target in another assay is PI3Kβ (p110β/p85α) (Homo sapiens, UniProt P42338). Nature of the assay: cell-free PI3K HTRF assay, PI3Kβ. For orientation: Time-resolved FRET reads energy transfer from a long-lived donor to a nearby acceptor.
In the next assay the target is PI3Kδ (p110δ/p85α) (Homo sapiens, UniProt O00329). Nature of the assay: cell-free PI3K HTRF assay, PI3Kδ.
The target of another assay is PI3Kα (p110α/p85α) (Homo sapiens, UniProt P42336). Nature of the assay: cell-free PI3K HTRF assay, PI3Kα.
A further assay concerns the target PI3Kγ (p110γ) (Homo sapiens, UniProt P48736). Briefly: cell-free PI3K HTRF assay, PI3Kγ.

Broadly, the IC50 is the concentration that gives 50% inhibition.

Sequence of PI3Kβ (p110β/p85α) (P42338 whole entry): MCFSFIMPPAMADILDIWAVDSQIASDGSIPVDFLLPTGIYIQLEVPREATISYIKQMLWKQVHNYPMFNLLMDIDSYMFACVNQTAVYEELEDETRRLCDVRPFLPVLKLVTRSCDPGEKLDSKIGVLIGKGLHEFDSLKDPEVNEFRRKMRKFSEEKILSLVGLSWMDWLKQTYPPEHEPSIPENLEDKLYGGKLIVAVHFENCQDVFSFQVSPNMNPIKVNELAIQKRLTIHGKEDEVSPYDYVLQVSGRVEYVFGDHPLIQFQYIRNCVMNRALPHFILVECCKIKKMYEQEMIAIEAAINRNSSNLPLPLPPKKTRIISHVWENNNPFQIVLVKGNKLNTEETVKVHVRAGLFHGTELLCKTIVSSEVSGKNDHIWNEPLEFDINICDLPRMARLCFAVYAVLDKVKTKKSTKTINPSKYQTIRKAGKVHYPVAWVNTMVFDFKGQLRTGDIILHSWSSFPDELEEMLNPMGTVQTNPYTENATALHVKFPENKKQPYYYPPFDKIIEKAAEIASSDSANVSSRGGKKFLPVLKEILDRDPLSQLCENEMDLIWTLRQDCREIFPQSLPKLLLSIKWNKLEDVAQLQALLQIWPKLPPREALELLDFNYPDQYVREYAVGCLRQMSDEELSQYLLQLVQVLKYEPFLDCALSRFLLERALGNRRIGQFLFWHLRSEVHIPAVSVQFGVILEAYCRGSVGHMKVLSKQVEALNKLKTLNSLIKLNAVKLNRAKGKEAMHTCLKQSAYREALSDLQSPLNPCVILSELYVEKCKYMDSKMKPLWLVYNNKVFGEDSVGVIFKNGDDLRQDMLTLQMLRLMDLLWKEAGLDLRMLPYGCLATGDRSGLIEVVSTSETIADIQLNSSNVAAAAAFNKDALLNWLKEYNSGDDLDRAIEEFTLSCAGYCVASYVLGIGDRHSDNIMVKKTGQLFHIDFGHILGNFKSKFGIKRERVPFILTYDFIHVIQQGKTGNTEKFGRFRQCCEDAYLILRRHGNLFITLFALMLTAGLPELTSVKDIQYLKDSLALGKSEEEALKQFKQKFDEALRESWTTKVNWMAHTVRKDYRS
Sequence of PI3Kβ (p110β/p85α) (P27986 whole entry partner): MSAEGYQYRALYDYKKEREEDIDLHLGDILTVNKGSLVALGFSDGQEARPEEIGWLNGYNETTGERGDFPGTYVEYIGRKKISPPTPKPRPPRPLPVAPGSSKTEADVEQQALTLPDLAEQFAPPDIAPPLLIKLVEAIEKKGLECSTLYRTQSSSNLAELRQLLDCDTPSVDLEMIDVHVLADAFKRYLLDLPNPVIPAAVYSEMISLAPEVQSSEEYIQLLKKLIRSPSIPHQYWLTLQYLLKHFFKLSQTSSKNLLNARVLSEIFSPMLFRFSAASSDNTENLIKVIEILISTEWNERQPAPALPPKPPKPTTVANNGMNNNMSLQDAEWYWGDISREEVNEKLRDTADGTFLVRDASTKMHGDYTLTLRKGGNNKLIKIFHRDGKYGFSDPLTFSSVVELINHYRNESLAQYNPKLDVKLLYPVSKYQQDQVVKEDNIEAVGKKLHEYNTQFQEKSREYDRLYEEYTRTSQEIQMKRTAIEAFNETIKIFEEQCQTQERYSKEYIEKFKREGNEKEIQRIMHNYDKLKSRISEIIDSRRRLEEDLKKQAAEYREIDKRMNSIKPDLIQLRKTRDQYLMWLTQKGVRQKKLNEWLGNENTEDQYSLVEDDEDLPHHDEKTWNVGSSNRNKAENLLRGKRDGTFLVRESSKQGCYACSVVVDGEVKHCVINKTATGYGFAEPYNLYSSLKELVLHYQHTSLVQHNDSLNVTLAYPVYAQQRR
Sequence of PI3Kα (p110α/p85α) (P42336 whole entry): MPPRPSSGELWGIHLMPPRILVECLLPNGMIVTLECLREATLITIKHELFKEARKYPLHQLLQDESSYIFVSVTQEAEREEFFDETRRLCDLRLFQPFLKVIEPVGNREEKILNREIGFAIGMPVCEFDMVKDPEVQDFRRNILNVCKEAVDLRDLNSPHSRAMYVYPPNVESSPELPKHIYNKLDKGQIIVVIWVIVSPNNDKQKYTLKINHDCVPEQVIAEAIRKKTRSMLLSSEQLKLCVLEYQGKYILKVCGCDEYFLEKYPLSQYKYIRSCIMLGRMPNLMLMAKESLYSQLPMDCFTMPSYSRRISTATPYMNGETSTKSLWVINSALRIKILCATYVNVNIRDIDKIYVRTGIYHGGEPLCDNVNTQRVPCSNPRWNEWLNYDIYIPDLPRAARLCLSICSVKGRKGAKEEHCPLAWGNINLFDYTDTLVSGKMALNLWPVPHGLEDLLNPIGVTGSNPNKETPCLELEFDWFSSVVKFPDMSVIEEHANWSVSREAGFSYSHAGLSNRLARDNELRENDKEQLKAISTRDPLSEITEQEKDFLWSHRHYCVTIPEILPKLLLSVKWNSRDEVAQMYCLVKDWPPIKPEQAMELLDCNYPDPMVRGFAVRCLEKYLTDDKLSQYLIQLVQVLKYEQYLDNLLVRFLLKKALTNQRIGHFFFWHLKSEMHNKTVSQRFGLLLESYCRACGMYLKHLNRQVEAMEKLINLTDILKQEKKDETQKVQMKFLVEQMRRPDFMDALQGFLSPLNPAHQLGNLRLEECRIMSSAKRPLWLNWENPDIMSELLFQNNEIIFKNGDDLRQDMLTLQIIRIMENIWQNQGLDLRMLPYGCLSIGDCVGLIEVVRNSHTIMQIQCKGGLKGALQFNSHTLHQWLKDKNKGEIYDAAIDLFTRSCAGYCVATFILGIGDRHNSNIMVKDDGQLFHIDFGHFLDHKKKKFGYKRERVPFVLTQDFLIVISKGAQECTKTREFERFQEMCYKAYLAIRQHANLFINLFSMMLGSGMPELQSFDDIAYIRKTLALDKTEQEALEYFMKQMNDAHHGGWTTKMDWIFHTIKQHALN
Sequence of PI3Kα (p110α/p85α) (P27986 whole entry partner): as the sequence (P27986 whole entry partner) above
Sequence of PI3Kδ (p110δ/p85α) (O00329 whole entry): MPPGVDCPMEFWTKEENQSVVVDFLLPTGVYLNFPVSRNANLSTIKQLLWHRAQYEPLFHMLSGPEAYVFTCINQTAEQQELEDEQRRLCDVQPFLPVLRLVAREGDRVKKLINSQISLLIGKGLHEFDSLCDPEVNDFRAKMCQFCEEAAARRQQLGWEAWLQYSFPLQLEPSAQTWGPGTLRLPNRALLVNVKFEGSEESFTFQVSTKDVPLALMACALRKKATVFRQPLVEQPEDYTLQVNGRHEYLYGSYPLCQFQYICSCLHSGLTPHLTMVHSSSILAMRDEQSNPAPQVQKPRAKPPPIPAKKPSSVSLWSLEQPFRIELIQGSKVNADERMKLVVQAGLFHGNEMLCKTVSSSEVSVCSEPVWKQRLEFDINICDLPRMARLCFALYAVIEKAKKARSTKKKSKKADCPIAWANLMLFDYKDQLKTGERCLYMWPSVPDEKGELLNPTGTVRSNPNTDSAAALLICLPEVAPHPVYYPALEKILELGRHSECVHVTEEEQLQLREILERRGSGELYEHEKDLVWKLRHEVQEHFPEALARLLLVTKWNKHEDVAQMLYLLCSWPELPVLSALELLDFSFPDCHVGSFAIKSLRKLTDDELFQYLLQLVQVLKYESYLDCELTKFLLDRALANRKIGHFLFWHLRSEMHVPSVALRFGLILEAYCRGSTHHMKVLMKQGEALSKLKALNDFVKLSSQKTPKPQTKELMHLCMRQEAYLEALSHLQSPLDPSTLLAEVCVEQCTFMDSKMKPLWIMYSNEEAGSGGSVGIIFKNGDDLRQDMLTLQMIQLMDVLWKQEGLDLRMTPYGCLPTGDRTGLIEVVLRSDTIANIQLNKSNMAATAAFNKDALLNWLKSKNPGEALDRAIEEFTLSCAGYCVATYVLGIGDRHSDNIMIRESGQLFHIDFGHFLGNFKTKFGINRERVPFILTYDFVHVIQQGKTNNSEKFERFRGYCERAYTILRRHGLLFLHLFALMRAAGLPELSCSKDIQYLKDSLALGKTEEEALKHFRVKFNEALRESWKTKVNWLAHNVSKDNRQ
Sequence of PI3Kδ (p110δ/p85α) (P27986 whole entry partner): as the sequence (P27986 whole entry partner) above
Sequence of PI3Kγ (p110γ) (P48736 whole entry): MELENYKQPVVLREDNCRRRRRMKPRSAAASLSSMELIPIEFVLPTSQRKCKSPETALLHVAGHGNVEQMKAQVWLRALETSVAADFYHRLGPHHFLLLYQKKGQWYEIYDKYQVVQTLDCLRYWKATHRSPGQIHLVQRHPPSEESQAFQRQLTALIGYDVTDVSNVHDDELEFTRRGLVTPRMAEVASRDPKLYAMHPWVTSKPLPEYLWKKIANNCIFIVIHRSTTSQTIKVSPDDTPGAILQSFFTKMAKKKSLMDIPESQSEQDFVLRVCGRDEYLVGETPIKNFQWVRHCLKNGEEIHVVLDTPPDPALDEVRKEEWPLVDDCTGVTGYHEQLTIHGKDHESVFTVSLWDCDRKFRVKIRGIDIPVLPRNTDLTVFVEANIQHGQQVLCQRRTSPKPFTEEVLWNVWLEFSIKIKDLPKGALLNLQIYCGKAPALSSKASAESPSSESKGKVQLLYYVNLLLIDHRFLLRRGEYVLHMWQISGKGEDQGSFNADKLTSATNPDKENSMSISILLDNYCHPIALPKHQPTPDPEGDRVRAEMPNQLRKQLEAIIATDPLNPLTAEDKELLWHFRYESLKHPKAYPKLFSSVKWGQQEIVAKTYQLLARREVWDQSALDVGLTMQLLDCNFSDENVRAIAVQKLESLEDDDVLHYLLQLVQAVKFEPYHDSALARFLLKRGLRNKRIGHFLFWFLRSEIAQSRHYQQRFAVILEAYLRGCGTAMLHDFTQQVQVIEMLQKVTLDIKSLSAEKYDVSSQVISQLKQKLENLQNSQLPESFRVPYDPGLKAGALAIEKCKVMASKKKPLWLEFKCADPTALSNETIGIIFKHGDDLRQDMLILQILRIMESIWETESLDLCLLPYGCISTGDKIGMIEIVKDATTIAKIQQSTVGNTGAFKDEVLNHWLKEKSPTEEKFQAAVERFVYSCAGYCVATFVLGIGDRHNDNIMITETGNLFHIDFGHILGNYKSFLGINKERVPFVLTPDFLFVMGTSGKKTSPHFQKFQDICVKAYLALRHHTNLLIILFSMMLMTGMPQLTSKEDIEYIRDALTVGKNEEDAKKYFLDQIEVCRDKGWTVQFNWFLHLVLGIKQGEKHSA
Experimental for PI3Kα (p110α/p85α): (§4) Exemplary compounds of the invention were tested for inhibitory activity or potency against class I PI3Ks (p110α/p85α, p110β/p85α, p110δ/p85α and p110γ) using a cell-free based PI3K HTRF assay. This assay was used to detect the formation of the product 3,4,5-inositol triphosphate molecule (PIP3) by displacement of biotin-PIP3 from an energy transfer complex consisting of Europium labeled anti-GST monoclonal antibody, a GST-tagged pleckstrin homology (PH) domain, biotinylated PIP3 and Streptavidin-Allophycocyanin (APC). […] The PIP3 product formed by human PI3-Kinase activity displaces biotin-PIP3 from the complex resulting in a loss of energy transfer and thus a decrease in signal.
(§5) Human class I PI3K isoforms were co-expressed in a Baculovirus infected cell expression system. The PI3K isoforms were assayed in the presence of HEPES (50 mM, pH 7.0), NaN3 (0.02%), BSA (0.01%), orthovanadate (0.1 mM), and DMSO (1%). The exemplary compounds dissolved in DMSO were delivered into the kinase reaction mixture by Acoustic technology (Echo550; nanolitter range), and were pre-incubated for 10 min at room temperature before adding ATP (10 μM) to initiate the reaction. […] The emission ratio is converted into μM PIP3 production based on PIP3 standard curves, and the nonlinear regression to obtain the standard curve and IC50 values are performed using Graphpad Prism software.
Experimental for PI3Kβ (p110β/p85α): as §4, §5
Experimental for PI3Kγ (p110γ): as §4, §5
Experimental for PI3Kδ (p110δ/p85α): as §4, §5

As for `Cn1cc(-c2ccc3cc(C4CCCN4c4ncnc(N)c4C#N)c(N4CCOCC4)nc3c2)c2cc[nH]c2c1=O` (stereo not drawn) [Compound 6], the IC50 on BRD4 (BD1) stood at 3.5 nM. For the same molecule, the “activity against PI3K in words” value in the assay with class I PI3Ks is “PI3K-inactive”.
`Cc1cc(-c2c(F)ccc3cc(C4CCCN4c4ncnc(N)c4C#N)c(N4CCOCC4)nc23)cn(C)c1=O` (stereo not drawn) [Compound 15]: the values for the IC50 at BRD4 (BD1) and at BRD4 (BD2) were 1250 nM and 680 nM, respectively.
For `Cc1cc(-c2cccc3cc(C4CCCN4c4ncnc(N)c4C#N)c(-c4cccnc4)nc23)cn(C)c1=O` (stereo not drawn) [Compound 29], the half-inhibitory concentration (IC50) against PI3Kβ (p110β/p85α) stood at 263 nM; at BRD4 (BD1), 37.9 nM; at BRD4 (BD2) it was 46.6 nM; against PI3Kδ (p110δ/p85α), 1.23 nM; at PI3Kα (p110α/p85α) it was 867 nM; on PI3Kγ (p110γ), 19.2 nM.
As for `Cc1cc(-c2cccc3cc(C4CCCN4c4ncnc(N)c4C#N)c(N4CCOCC4)nc23)cn(C)c1=O` (stereo not drawn) [Compound 11], the 50% inhibitory concentration (IC50) against PI3Kβ (p110β/p85α) was found to be 567 nM; on BRD4 (BD1) it was 24 nM; at BRD4 (BD2), 86 nM; on PI3Kδ (p110δ/p85α), 5.34 nM; against PI3Kα (p110α/p85α), 247 nM; at PI3Kγ (p110γ) it was 56.6 nM.
Take `Cc1noc(C)c1-c1cccc2cc(C3CCCN3c3ncnc(N)c3C#N)c(N3CCOCC3)nc12` (stereo not drawn) [Compound 9]: the IC50 on BRD4 (BD1) amounted to 9460 nM; against PI3Kδ (p110δ/p85α), 3.25 nM.
On to `Cc1cc(-c2c(F)ccc3cc(C4CCCN4c4nc(N)nc(N)c4C#N)c(N4CCOCC4)nc23)cn(C)c1=O` (stereo not drawn) [Compound 13], for which the IC50 at BRD4 (BD1) is 799 nM; on BRD4 (BD2) it was 12.4 nM; on PI3Kγ (p110γ), above 10000 nM. Also, the “overall activity in words (class I PI3Ks and BRD4)” value in the assay on class I PI3Ks is “inactive”.
Consider `Cc1cc(-c2ccc3cc(C4CCCN4c4ncnc(N)c4C#N)c(N4CCOCC4)nc3c2)cn(C)c1=O` (stereo not drawn) [Compound 8], for which the results for the 50% inhibitory concentration (IC50) on BRD4 (BD1) and on BRD4 (BD2) were 28 nM and 7.7 nM, respectively. Further, the “activity against PI3K in words” value with class I PI3Ks is “PI3K-inactive”.
Turning to `Cc1cc(-c2cccc3cc(C4CCCN4c4ncnc(N)c4C#N)c(N4CCCCC4)nc23)cn(C)c1=O` (stereo not drawn) [Compound 18], the IC50 at PI3Kβ (p110β/p85α) came out at 874 nM; on BRD4 (BD1), 84.5 nM; on BRD4 (BD2) it was 85.2 nM; against PI3Kδ (p110δ/p85α), 1.89 nM; on PI3Kα (p110α/p85α), 4270 nM; against PI3Kγ (p110γ), 39.2 nM.
Take `Cc1cc(-c2cccc3cc(C4CCCN4c4ncnc(N)c4C#N)c(N(C)C)nc23)cn(C)c1=O` (stereo not drawn) [Compound 19]: the IC50 against PI3Kβ (p110β/p85α) was 596 nM; at BRD4 (BD1), 23.9 nM; on BRD4 (BD2), 19.3 nM; against PI3Kδ (p110δ/p85α), 3.04 nM; on PI3Kα (p110α/p85α), 535 nM; against PI3Kγ (p110γ), 79.8 nM.
For `Cc1cc(-c2c(F)ccc3cc(C4CCCN4c4nc(N)nc5[nH]cnc45)c(N4CCOCC4)nc23)cn(C)c1=O` (stereo not drawn) [Compound 14], the results for the concentration for half-maximal inhibition (IC50) on BRD4 (BD1) and on BRD4 (BD2) were above 10000 nM and 4210 nM, respectively.
As to `Cc1cc(-c2ccc(F)c3cc(C4CCCN4c4ncnc(N)c4C#N)c(N4CCOCC4)nc23)cn(C)c1=O` (stereo not drawn) [Compound 16], the IC50 on BRD4 (BD2) is 4970 nM. For the same molecule, the “overall activity in words (class I PI3Ks and BRD4)” value in the assay on class I PI3Ks was “inactive”.
On to `Cc1cc(-c2cccc3cc([C@@H]4CCCN4c4ncnc(N)c4C#N)c(N4CCOCC4)nc23)cn(C)c1=O` [Compound 23], for which the IC50 on PI3Kβ (p110β/p85α) amounted to 191 nM; at BRD4 (BD1), 26.7 nM; on BRD4 (BD2) it was 12.9 nM; on PI3Kδ (p110δ/p85α), 0.73 nM; against PI3Kα (p110α/p85α), 153 nM; against PI3Kγ (p110γ), 13 nM.
For `Cc1nnc2ccc(-c3cccc4cc(C5CCCN5c5ncnc(N)c5C#N)c(N5CCOCC5)nc34)nn12` (stereo not drawn) [Compound 10], the IC50 at BRD4 (BD1) amounted to 3980 nM; against PI3Kδ (p110δ/p85α) it was 30.5 nM.
Turning to `Cn1cc(-c2cccc3cc(CNc4nc(N)nc(N)c4C#N)c(N4CCOCC4)nc23)c2cc[nH]c2c1=O` [Compound 25], the IC50 came out at 43.3 nM at PI3Kβ (p110β/p85α); 55.3 nM on BRD4 (BD1); 20.7 nM on BRD4 (BD2); 1.98 nM at PI3Kδ (p110δ/p85α); 20.5 nM against PI3Kα (p110α/p85α); 16.7 nM on PI3Kγ (p110γ).
As for `Cc1cc(-c2cccc3cc(C4CCCN4c4ncnc(N)c4C#N)c(-c4ccccc4)nc23)cn(C)c1=O` (stereo not drawn) [Compound 28], the IC50 on PI3Kβ (p110β/p85α) is 354 nM; at BRD4 (BD1) it was 446 nM; on BRD4 (BD2), 148 nM; on PI3Kδ (p110δ/p85α), 1.56 nM; on PI3Kα (p110α/p85α), 1020 nM; against PI3Kγ (p110γ), 11.7 nM.
Turning to `Cc1nnc2ccc(N3CCN(c4nc5cc(F)ccc5cc4C4CCCN4c4ncnc(N)c4C#N)CC3)nn12` (stereo not drawn) [Compound 4, 4-amino-6-(2-(7-fluoro-2-(4-(3-methyl-[1,2,4]triazolo[4,3-b]pyridazin-6-yl)piperazin-1-yl)quinolin-3-yl)pyrrolidin-1-yl)pyrimidine-5-carbonitrile], the values for the IC50 at BRD4 (BD1) and on PI3Kδ (p110δ/p85α) were 8000 nM and 0.66 nM, respectively.
Consider `Cc1cc(-c2ccc(F)c3cc(C4CCCN4c4nc(N)nc(N)c4C#N)c(N4CCOCC4)nc23)cn(C)c1=O` (stereo not drawn) [Compound 17], for which the IC50 at BRD4 (BD2) was 745 nM; on PI3Kγ (p110γ), above 10000 nM.
At PI3Kδ (p110δ/p85α), `Cc1noc(C)c1-c1nc2c(C)cccc2cc1C1CCCN1c1ncnc(N)c1C#N` (stereo not drawn) [Compound 3, 4-amino-6-(2-(2-(3,5-dimethylisoxazol-4-yl)-8-methylquinolin-3-yl)pyrrolidin-1-yl)pyrimidine-5-carbonitrile] registered an IC50 of 0.523 nM.
Turning to `Cc1nnc2ccc(-c3ccc4cc(C5CCCN5c5ncnc(N)c5C#N)c(N5CCOCC5)nc4c3)nn12` (stereo not drawn) [Compound 7], the IC50 at BRD4 (BD1) is 694 nM.
Take `Cn1cc(-c2cccc3cc(C4CCCN4c4ncnc(N)c4C#N)c(N4CCOCC4)nc23)c2cc[nH]c2c1=O` (stereo not drawn) [Compound 12]: the IC50 on BRD4 (BD1) was 35 nM; on PI3Kδ (p110δ/p85α), 5 nM.
With `CC(C)Nc1nc2c(-c3cn(C)c(=O)c4[nH]ccc34)cccc2cc1C1CCCN1c1ncnc(N)c1C#N` (stereo not drawn) [Compound 22], the IC50 came to 3550 nM against PI3Kβ (p110β/p85α); 636 nM on BRD4 (BD1); 74.5 nM at BRD4 (BD2); 19.3 nM on PI3Kδ (p110δ/p85α); 544 nM at PI3Kα (p110α/p85α); 171 nM against PI3Kγ (p110γ).
For the molecule `Cn1cc(-c2cccc3cc(C4CCCN4c4nc(N)nc(N)c4C#N)c(N4CCOCC4)nc23)c2cc[nH]c2c1=O` (stereo not drawn) [Compound 21], the IC50 turned out to be 118 nM on PI3Kβ (p110β/p85α); 24.8 nM on BRD4 (BD1); 18.1 nM on BRD4 (BD2); 3.68 nM against PI3Kδ (p110δ/p85α); 53.7 nM against PI3Kα (p110α/p85α); 2 nM at PI3Kγ (p110γ).
For `Cn1cc(-c2cccc3cc([C@@H]4CCCN4c4nc(N)nc(N)c4C#N)c(N4CCOCC4)nc23)c2cc[nH]c2c1=O` [Compound 24], the IC50 stood at 53.9 nM at PI3Kβ (p110β/p85α); 12.5 nM on BRD4 (BD1); 9.07 nM at BRD4 (BD2); 0.938 nM on PI3Kδ (p110δ/p85α); 18.2 nM against PI3Kα (p110α/p85α); 1.43 nM against PI3Kγ (p110γ).

For the origin of these results see patent US20190308963A1, “HETEROCYCLIC COMPOUNDS AND USES THEREOF” (priority 2018, published 2019).
